{"source": "patent US7338950B2", "about": "“Amide compounds as ion channel ligands and uses thereof” (Renovis, Inc., priority 2003, dated 2008)", "key": {"[1]": {"target": "T1, VR1 receptor (capsaicin induced current in dorsal root ganglion (DRG) neurons) (Rattus norvegicus, UniProt O35433)", "T1 construct": "Dorsal root ganglion (DRG) neurons were recovered from either neonatal or adult rats; endogenous in cells; host or cells: primary rat dorsal root ganglion neurons", "T1 sequence (O35433 whole entry)": "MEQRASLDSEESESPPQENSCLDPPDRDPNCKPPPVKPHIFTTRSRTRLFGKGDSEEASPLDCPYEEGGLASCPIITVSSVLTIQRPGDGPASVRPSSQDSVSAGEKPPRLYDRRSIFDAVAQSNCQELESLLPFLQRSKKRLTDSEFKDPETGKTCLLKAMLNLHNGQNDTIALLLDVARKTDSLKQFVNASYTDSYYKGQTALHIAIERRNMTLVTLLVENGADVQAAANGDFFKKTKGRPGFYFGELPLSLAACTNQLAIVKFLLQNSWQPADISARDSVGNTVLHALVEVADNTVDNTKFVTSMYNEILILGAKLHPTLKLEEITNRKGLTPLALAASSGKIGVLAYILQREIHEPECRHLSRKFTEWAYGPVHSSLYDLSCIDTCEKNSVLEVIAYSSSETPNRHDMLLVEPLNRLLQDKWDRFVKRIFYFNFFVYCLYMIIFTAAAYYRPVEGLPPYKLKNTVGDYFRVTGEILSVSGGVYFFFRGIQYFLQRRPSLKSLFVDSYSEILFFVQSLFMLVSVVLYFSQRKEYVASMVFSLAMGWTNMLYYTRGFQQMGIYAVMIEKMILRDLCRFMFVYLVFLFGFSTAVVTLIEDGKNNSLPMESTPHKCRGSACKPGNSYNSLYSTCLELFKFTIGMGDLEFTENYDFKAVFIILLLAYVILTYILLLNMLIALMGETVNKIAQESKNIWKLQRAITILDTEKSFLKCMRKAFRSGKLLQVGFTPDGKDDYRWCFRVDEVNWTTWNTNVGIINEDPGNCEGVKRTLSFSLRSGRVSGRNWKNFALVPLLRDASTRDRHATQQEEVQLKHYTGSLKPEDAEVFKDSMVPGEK", "assay": "Whole-cell patch clamp electrophysiology, capsaicin induced current in DRG neurons", "assay_type": "cell-based", "settings": "DRG neuron; 100 nM, treatment time 20 seconds; 500 nM capsaicin, rat DRG neurons", "procedure": "Dorsal root ganglion (DRG) neurons were recovered from either neonatal or adult rats and plated onto poly-D-lysine coated glass coverslips. The plated neurons were transferred into a chamber to allow drug solutions to be added to the cells using a computer-controlled solenoid-valve based perfusion system. The cells were imaged using standard DIC optics. Cells were patched using finely-pulled glass electrodes. Voltage-clamp electrophysiology experiments were carried out using an Axon Instruments Multiclamp amplified controlled by pCLAMP8 software.\nThe cells were placed into a whole-cell voltage clamp and help at a voltage of −80 mV while monitoring the membrane current in gap-free recording mode. 500 nM capsaicin was added for 30 seconds as a control. Test compounds at various concentrations at ranging from (10-1000 nM) were added to the cells for 1 minute prior to a 30 second capsaicin application. Differences between control experiments and drug positive capsaicin experiments were used to determine the efficacy of each test compound. All compounds that inhibited capsaicin induced current greater than 50% were considered positives."}, "CYP2C19": {"target": "CYP2C19 (Homo sapiens, UniProt P33261)", "sequence (P33261 whole entry)": "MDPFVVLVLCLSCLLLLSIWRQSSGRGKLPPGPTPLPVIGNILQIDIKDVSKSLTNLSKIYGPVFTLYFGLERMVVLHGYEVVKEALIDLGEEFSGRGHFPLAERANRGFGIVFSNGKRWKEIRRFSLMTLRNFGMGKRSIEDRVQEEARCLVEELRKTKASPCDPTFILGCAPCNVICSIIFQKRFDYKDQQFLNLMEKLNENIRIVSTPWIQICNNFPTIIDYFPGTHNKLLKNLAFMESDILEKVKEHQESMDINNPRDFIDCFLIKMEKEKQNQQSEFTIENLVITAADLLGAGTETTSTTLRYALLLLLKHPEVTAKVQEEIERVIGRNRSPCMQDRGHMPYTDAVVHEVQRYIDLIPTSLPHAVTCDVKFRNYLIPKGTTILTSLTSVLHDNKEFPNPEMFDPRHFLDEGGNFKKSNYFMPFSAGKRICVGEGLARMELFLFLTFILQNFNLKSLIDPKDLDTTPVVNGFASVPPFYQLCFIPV", "assay": "Cytochrome p450 inhibition assessment, CYP2C19", "assay_type": "biochemical", "settings": "estimated, Hill equation fit", "procedure": "(§1) The ability of test compounds to inhibit five major human cytochrome p450 isozymes was evaluated. Cytochrome p450 inhibition assays were performed on 96-well microtiter assay plates according to the protocols described in Gentest P450 inhibition instruction manuals. The assays were performed in duplicate at 8 concentrations with the upper concentration of 100 μM followed by a 1:3 serial dilution. Reactions were initiated by the addition of 100 μL of enzyme/substrate mix to 100 μL of cofactor/serial dilution mix, and terminated by addition of 75 μL of a 4:1 acentonitrile: 0.5 M Tris base solution or by 2N NaOH for CYP3A4/DBF. Fluorescence was measured using a fluorescence plate reader (FLUOstar model 403, BMG Lab Technologies, Durham, N.C.). For reactions with inhibition greater than 50%, IC50 values were determined by fitting the data to the Hill equation using software GraphPad Prism (Version 4.02, GraphPad Software, San Diego, Calif.)."}, "[2]": {"assay": "Plasma protein binding, equilibrium dialysis, human plasma", "assay_type": "in vitro ADME", "settings": "human plasma (sodium citrate), pH 7.4, 37° C., at least 22 hours, read-out: human plasma protein binding (% Bound)", "procedure": "Membranes from Harvard/Amika with a molecular weight cutoff of 5,000 were rinsed with dH2O then placed in pH 7.4 PBS supplied by Gibco. The membranes were allowed to soak for 1 hour. A stock of the test article was pooled with Warfarin, Atropine at 2 mM in DMSO. The test article was then dosed into human plasma in sodium citrate, Rat Plasma, and Mouse Plasma to a final 10 μM concentration (0.5% DMSO v/v). The pre-soaked membranes were then placed into dialysis chambers. 500 μL of PBS was added to one side of the chamber, and 500 μL of the Matrix containing the test article was added to the other side of the chamber.\nThe chambers were then placed into an enclosed, heated rocker, which was pre-warmed to 37° C. and allowed to reach equilibrium for at least 22 hours. After 22 hours both sides were sampled. 100 μL of the donor side was added to 500 μL of PBS. 100 μL of the PBS side was added to 20 μL of fresh matrix. Samples then were crashed with 1:1 Acetonitrile and centrifuged at 10,000 RPM for 10 minutes. […]\nStandards were prepared in a 1:5 plasma: PBS mixture at 5, 1.5, 0.5, 0.15, 0.05, 0.015 and 0.005 μM concentrations. […] Protein binding values were calculated as follows: % Bound=[(Concentration in Donor−Concentration in Receiver)/(Concentration in Donor)]×100. % Recovery=[(Concentration in donor+Concentration in Receiver)]/(Concentration in Normal Initial)]×100"}, "CYP1A2": {"target": "T2, CYP1A2 (Homo sapiens, UniProt P05177)", "T2 sequence (P05177 1-516)": "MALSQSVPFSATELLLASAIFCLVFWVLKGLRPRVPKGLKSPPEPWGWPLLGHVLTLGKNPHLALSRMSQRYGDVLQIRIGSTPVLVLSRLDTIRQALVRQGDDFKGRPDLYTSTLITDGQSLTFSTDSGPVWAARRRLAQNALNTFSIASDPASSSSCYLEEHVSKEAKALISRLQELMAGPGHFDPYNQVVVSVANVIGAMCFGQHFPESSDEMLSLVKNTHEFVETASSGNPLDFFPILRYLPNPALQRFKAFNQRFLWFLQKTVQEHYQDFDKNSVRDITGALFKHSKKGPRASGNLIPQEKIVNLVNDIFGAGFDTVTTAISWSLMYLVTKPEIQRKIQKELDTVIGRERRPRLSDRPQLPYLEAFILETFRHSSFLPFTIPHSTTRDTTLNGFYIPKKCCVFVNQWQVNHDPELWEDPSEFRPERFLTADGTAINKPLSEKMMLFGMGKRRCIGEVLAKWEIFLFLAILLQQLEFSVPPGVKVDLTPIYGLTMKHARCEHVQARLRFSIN", "assay": "Cytochrome p450 inhibition assessment, CYP1A2", "assay_type": "biochemical", "settings": "estimated, Hill equation fit", "procedure": "as §1"}, "[3]": {"assay": "Pharmacokinetic profile after intravenous and oral administration", "assay_type": "in vivo", "settings": "male, Sprague-Dawley, rat, plasma, rats", "procedure": "The pharmacokinetic profile of Compound 18 was evaluated following intravenous and oral administration in rats. Sprague-Dawley male rats obtained from Charles River, San Diego, Calif. were acclimated for 24 hours.\nCompound 18 was formulated at a concentration of 0.5 mg/mL for IV administration at a 1 mg/kg dose and 1 mg/mL for oral administration at a 5 mg/kg dose. All animals were weighed before dosing. The body weight was used to calculate the actual dose for each animal. The intravenous dose was administered through the jugular vein catheter in less than 1 minute. The oral dose volume was 1.5 mL for all PO rats administered through oral lavage.\nFor IV dosing, blood samples were collected using a pre-heparinized syringe via the carotid artery catheter before dosing and at t=2, 5, 15, 30, 60, 120, 180, 360, and 480 minutes post dosing. For PO dosing, blood samples were collected using a pre-heparinized syringe via the carotid artery catheter before dosing and at t=5, 15, 30, 60, 120, 180, 360, and 480 minutes post dosing. 250 uL of blood was obtained at each time point from each animal. Equal volumes of 0.9% normal saline were replaced to prevent dehydration. The whole blood samples were maintained on ice until centrifugation. Blood samples were centrifuged at 14,000 rpm for 10 minutes at 4° C., and the upper plasma layer was transferred into a clean vial and store at −80° C."}, "[4]": {"settings": "route not stated (IV 1 mg/kg, PO 5 mg/kg)"}}, "data": [{"smiles": "COc1ccc(CCNC(=O)c2ccc(-c3ncccc3Cl)cc2)cc1OC", "note": "[Compound 18]", "values": [{"measurement": "inhibition at 0.1 µM", "setting": "[1]", "result": "< 75", "unit": "%"}, {"measurement": "IC50", "setting": "CYP2C19", "result": 26.9, "unit": "µM"}, {"measurement": "fraction unbound at 22 h, 10 µM", "setting": "[2]", "result": "< 0.002"}, {"measurement": "IC50", "setting": "CYP1A2", "result": 97.5, "unit": "µM"}, {"measurement": "bioavailability", "setting": "[3]; PO 5 mg/kg vs IV 1 mg/kg, read-out: Oral Bioavailability (% F)", "result": 30.1, "unit": "%"}, {"measurement": "Cmax", "setting": "[3]; [4]", "result": 1750, "unit": "nM"}, {"measurement": "Tmax", "setting": "[3]; [4]", "result": 3, "unit": "h"}, {"measurement": "clearance", "setting": "[3]; route not stated (IV 1 mg/kg, PO 5 mg/kg), read-out: Clearance (Cl) (converted)", "result": 8.83, "unit": "mL/min/kg"}, {"measurement": "Vd", "setting": "[3]; route not stated (IV 1 mg/kg, PO 5 mg/kg), read-out: Volume of distribution (Vd)", "result": 2.82, "unit": "L/kg"}, {"measurement": "half-life", "setting": "[3]; route not stated (IV 1 mg/kg, PO 5 mg/kg), read-out: half life (t½) (converted)", "result": 3.71, "unit": "h"}]}]}
